Assay results as given in PubChem BioAssay AID179 (DTP/NCI, 2004).
Where “and” joins values, the source holds several entries; their conditions need not be identical. Identical values can stand only once. Calls of active or inactive are those of the source.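 The calls were made as follows: active = compounds giving half or more protection of infected cells from virus-caused growth loss, again on retest; inactive = the rest.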

System: CEM cells HIV-1 protection, formazan growth assay
Assay: NCI AIDS Antiviral Assay
Settings: for IC50: measured here: growth of uninfected CEM cells
Summary of the method: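 Protection of CEM cells against HIV-1 was scored from cell growth (soluble formazan) across five concentrations, with parallel uninfected cells. Lack of protection may reflect toxicity.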

Compound | outcome | EC50 [µM] | IC50
CC(=O)OC(C(=O)[O][Ge]([CH3])([CH3])[CH3])c1ccccc1 (stereo not drawn) | inactive | – | –
COC(=O)C1CC2CC1C1C2SC(F)(F)C1(F)F (stereo not drawn) | – | > 200 | > 200 µM
C=C(CN(C)C)C(=O)c1ccccc1[N+](=O)[O-] | – | > 200 | 10.7 µM
COC(=O)Nc1nc2ccc(SC)cc2c(=O)[nH]1 | – | > 355 | 12.6 µM
Cc1cc2c(cc1C)NC(=O)C(NC(=O)c1ccc(Cl)cc1)C=N2 (stereo not drawn) | – | > 200 | > 200 µM
Clc1ccc(CSc2cnnc3c(Br)cccc23)c(Cl)c1 | – | > 24.5 | > 24.5 µM
C[C@@]12C[C@@H](c3ccccc3O1)N1CCSC1=N2 | inactive | – | –
O=S1(=O)C2CCCC1C(Cl)CC2 (stereo not drawn) | – | > 47.9 | > 47.9 µM
O=C1C=CC(=C(c2ccc(O)cc2)c2c(Br)c(Br)c(Br)c(Br)c2S(=O)(=O)O)C=C1 | inactive | – | –
CCCC1C2C(=O)N(c3ccccc3)C(=O)C2ON1c1ccccc1 (stereo not drawn) | – | > 40.7 | > 40.7 µM
Cc1ccc2c(N(CCO)CCO)cc(-c3ccccc3)nc2n1 | – | > 200 | > 200 µM
C=CCCCCOC1C=CC(OC(C)=O)C(COC(C)=O)O1 (stereo not drawn) | – | > 200 | > 200 µM
C=C1CCCCCCCCCCC12SCCCS2 | – | > 200 | > 200 µM
O=C1c2ccccc2N2OC3C4CCC(C4)C3C12c1ccccc1 (stereo not drawn) | – | > 16.2 | 11.5 µM
Cc1ccc(S(=O)(=O)C2CC2(Cl)Cl)cc1 (stereo not drawn) | inactive | – | –
O=C1NC2(CCCCC2)C2CCCCC(O)C12 (stereo not drawn) | inactive | – | –
NCCCN(CCCN(C(=O)Nc1ccccc1)c1ccccc1)C(=O)Nc1ccccc1 | – | > 200 | 55 µM
N#Cc1n[nH]n(C2CCCCC2)c1=O | – | > 200 | > 200 µM
O=C1OC(CC(=O)c2ccc(Cl)cc2)C(Cl)=C1Cl (stereo not drawn) | – | > 85.1 | > 85.1 µM
Cc1ccc(S(=O)(=O)n2nc(Oc3ccc(Cl)c(Cl)c3)nc2N)cc1 | – | > 3.63 | > 3.63 µM
COc1ccc2nc3cc(Cl)ccc3c(Sc3ccccc3[N+](=O)[O-])c2c1 | – | > 9.55 | > 9.55 µM
CCC1(CC)c2ccccc2C(CC)(CC)[N+]1(C)C | – | > 200 | 85.1 µM

Compound | outcome | EC50 [µM] | IC50
O=C1OC(c2cccc3ccccc23)c2ccccc21 (stereo not drawn) | – | > 501 | 26.3 µM
Cc1ncc([N+](=O)[O-])n1CC(O)Cn1cnc([N+](=O)[O-])n1 (stereo not drawn) | – | > 200 | > 200 µM
N#CC1(C#N)C2(c3ccccc3)OC(c3ccccc3)(c3cc4ccccc4cc32)C1(C#N)C#N | inactive | – | –
O=C(OCCc1ccccc1)c1cc2ccc(O)c(O)c2cn1 | – | > 8.32 | > 8.32 µM
Clc1cccc(NC2=NCCN=C(Nc3cccc(Cl)c3Cl)SS2)c1Cl | – | > 200 | 21.4 µM
Nc1n[nH]c(N)n1 | – | > 2510 | > 200 µM and 282 µM
COc1ccc(-c2nc(N)c(C#N)c3c2CCS(=O)(=O)c2ccc(C)cc2-3)cc1OC | – | > 200 | 11.2 µM
CN(C)CC1CCC(CN(C)C)C1=NO (stereo not drawn) | inactive | – | –
CCOC(=O)c1ccc(CSc2ccc(OC)cc2)cc1 | – | > 33.1 | 16.2 µM
N[C@@H](CSSCCO)C(=O)O | – | > 200 | > 200 µM
CCOC(=O)N(C)C(=C(F)F)C(F)(F)F | – | > 200 | > 200 µM
CCOC(=O)/C(C#N)=C(O)/C(=C/c1ccccc1Cl)NC(=O)c1ccccc1 | – | > 631 | > 631 µM
C[Si](C)(OCCS(=O)(=O)O)C1(Cc2cccc3ccccc23)S(=O)(=O)OCCOS1(=O)=O | – | > 200 | 107 µM
O=C(c1nc2ccc(Cl)cc2[nH]c1=O)C(O)c1cccc([N+](=O)[O-])c1 (stereo not drawn) | – | > 186 | 12 µM
C=CC1=C(C)C2=NC1=CC1=NC(=CC3=C(C)C4=C(O)C(C(=O)O)C(=C5NC(=C2)C(C)C5CCC(=O)O)C4=N3)C(CC)=C1C (stereo not drawn) | – | > 39.8 | > 39.8 µM
CCCCNCc1cc(S(=O)(=O)N2CCCCC2)c2cccnc2c1O | – | > 47.9 | 8.91 µM
CCOC(=O)/C(=C\c1ccc(N(CCC#N)CCC#N)cc1)NC(=O)c1cc([N+](=O)[O-])ccc1Cl | – | > 10.5 | > 10.5 µM
O=C1CSC(c2ccccc2O)N1c1ccc(-n2c(-c3ccccc3)nc3ccccc3c2=O)cc1 (stereo not drawn) | – | > 200 | 11.2 µM
O=C(O)c1[nH]c(C(=O)O)c(CC(F)(F)C(F)(F)C(F)(F)F)c1CC(F)(F)C(F)(F)C(F)(F)F | inactive | – | –
O=c1ccn([C@@H]2O[C@@H]3COC(c4c(F)cccc4Cl)N(O)[C@@H]3C2O)c(=O)[nH]1 (stereo partly drawn) | – | > 200 | > 200 µM
CCOC(OCC)c1ccc(C(F)(F)F)cc1.[C-]#[O+].[C-]#[O+].[C-]#[O+].[Cr] | – | > 20 | 3.02 µM
